Laboratory results from US20060009478A1, “Methods for the treatment of back pain” (priority 2003, published 2006).

How the values were obtained:
[1] = Plasma concentrations of oxycodone, oxymorphone, noroxycodone, naltrexone and 6β-naltrexol by solid phase extraction LC-MS/MS
Text: Patients with moderate-to-severe pain due to osteoarthritis of the hip or knee were randomly assigned to one of four treatment groups as shown in Table 3 of Example 1. Plasma samples were obtained for each patient at the beginning of Weeks 1, 2, 3 and at the end of dosing during Week 3.
For the analysis of linearity and dose proportionality, linear equation coefficients were obtained by averaging patient-specific slopes and intercepts obtained by within-patient least squares regression. This was done to account for the correlation among the repeated measurements due to the patient's contributing data at each dose level. The resulting slopes among treatment groups were compared by one-way analysis of variance (ANOVA), and a one-sample t-test assessed the common slope's difference from zero. A measure of deviation from linearity was constructed as the difference between the concentration at the middle dose versus the average of the concentrations at the lower and higher doses. Due to equal spacing of doses, this measure has expectation zero under the hypothesis of linearity. As above, ANOVA and t-tests were used to assess linearity.
To achieve symmetry, modified log transformations were used.

[2] = test system: patients with moderate to severe chronic pain due to osteoarthritis of the hip or knee; assay: Emax composite model of 6β-naltrexol plasma concentration versus percent change in pain intensity; conditions: for EC51 Estimate / EC52 Estimate / Emax1 Estimate / Emax2 Estimate: WinNonlin
Experimental: As discussed in more detail below, the percent change in pain intensity was the drug effect used in a modeling analysis of plasma concentration vs. drug effect.
The plasma concentration-effect data were fit to the Emax composite model using the software program WinNonlin®(commercially available from Pharsight Corporation of Mountain View, Calif.) and the command files developed by Gabrielsson et al. The plasma concentration-effect data represented as circles in FIG. 11 were evaluated mathematically and the plasma concentration-effect curve shown in FIG. 11 was determined by the program and command files. Similarly, the program and command files were used to determine the plasma concentration-effect curve shown in FIG. 12 based on the data represented as circles in FIG. 12.
The computer output (printout) of this process included EC51 and EC52 parameters, as well as parameters reflecting statistical evaluation of the data, such as coefficient of variation (CV %).
These parameters are based on the data for 6β-naltrexol plasma concentrations and reduction in pain from baseline pain intensity to final pain intensity from all subjects for whom plasma concentration data was obtained as described herein. These parameters are based on data from subjects receiving the BID dosing regimens and subjects receiving the QID dosing regimen. Estimate refers to the value estimated by the WinNonlin® program and command file for relating plasma concentrations to the pharmacodynamic effects such as percent reduction in pain intensity.
These parameters are based on the data (6β-naltrexol plasma concentrations and percent reduction in pain intensity) for subjects receiving BID dosing regimens.

[3] = naltrexone hydrochloride in solution mixed with croscarmellose sodium in suspension; cited from earlier work
[4] = Total (BID and QID) data, curve of FIG. 11

SMILES: Oc1ccc2c3c1O[C@H]1[C@H](O)CC[C@@]4(O)[C@@H](C2)N(CC2CC2)CC[C@]314 [6β-naltrexol]
- Plasma concentrations over the course of the study (sampled at the end of each treatment week) ([1]; FIG. 7, combination drug BID and QID): remained constant throughout the study
- EC51 Estimate ([2]; BID data, curve of FIG. 12): 14.0 pg/mL
- EC52 Estimate ([2]; BID data, curve of FIG. 12): 0.422 pg/mL
- Emax1 Estimate ([2]; BID data, curve of FIG. 12): 27.0 units
- Emax2 Estimate ([2]; BID data, curve of FIG. 12): 76.3 units
- EC52 parameter, 6β-naltrexol plasma concentration ([2]; Emax composite model, total (BID and QID) data, Table 26, effect = percent reduction in pain intensity, 6β-naltrexol as surrogate for naltrexone): about 0.439 μg/ml
- EC51 Estimate [2, 4]: 14.4 pg/mL
- EC52 Estimate [2, 4]: 0.439 pg/mL
- Emax1 Estimate [2, 4]: 26.8 units
- Emax2 Estimate [2, 4]: 79.7 units

SMILES: O=C1CC[C@@]2(O)[C@H]3Cc4ccc(O)c5c4[C@@]2(CCN3CC2CC2)[C@H]1O5 [naltrexone]
- Fraction of naltrexone hydrochloride bound by croscarmellose sodium [3]: more than 90%

SMILES: CN1CC[C@]23c4c5ccc(O)c4O[C@H]2C(=O)CC[C@@]3(O)[C@H]1C5 [oxymorphone]
- Mean plasma concentration versus dose level over the course of the study ([1]; FIGS. 1 and 2): increased linearly with increasing dose levels
- Plasma concentration of oxymorphone (ng/mL) versus dose of oxycodone (mg/day): slope of linear equation ([1]; average of patient-specific regressions, slope p<0.001, t-test): 0.007153
- Plasma concentration of oxymorphone versus dose of oxycodone (mg/day): intercept of linear equation ([1]; average of patient-specific within-patient least squares regressions, all active treatments): 0.0607 ng/mL
